The values that follow come from US12115208B2, “Small-molecule adjuvants for antibiotics to address antibiotic resistance” (HIGH POINT UNIVERSITY, priority 2017, dated 2024).

One assay deals with S. aureus 43300 (MRSA). Description: Antibiotic repotentiation (antibiotic MIC with/without compound). It is filed as cell-based, Staphylococcus aureus. The conditions noted are these: S. aureus 43300 (MRSA); for Fold Reduction: oxacillin MIC. The protocol: The overnight culture was diluted into fresh CAMHB to a concentration of 5×10^5 CFU/ml. […] On the same plate, a standard microdilution MIC with the tested antibiotics and no added compound was also performed to compare the antibiotic MIC in the presence and absence of compound. […] Fold reductions were calculated by dividing the MIC of the antibiotic without compound by the MIC of the antibiotic in the presence of compound.
(§1) The compounds were then analyzed for antibiotic repotentiation activity. […] The tested strains included USA300, which is a common and particularly virulent strain of community-acquired MRSA.

The subject of assay [1] is S. aureus ATCC 43300 (MRSA). Description: Minimum inhibitory concentration, broth microdilution. In kind it is cell-based, Staphylococcus aureus. The conditions noted are these: compound alone; S. aureus ATCC 43300 (MRSA); CAMHB, 18 h; read-out: MIC. The protocol: as §1
For orientation: Broth dilution looks for growth in wells or tubes with falling amounts of substance.

Assay [2] relates to S. epidermidis ATCC 49461 biofilm. Put plainly: Biofilm inhibition, crystal violet assay. To be noted: read-out: Inhibition of biofilm formation IC50. In kind it is cell-based, Staphylococcus epidermidis. The protocol: A standard static crystal violet assay was used to quantify biofilm inhibition.^45 Cultures of S. aureus or S. epidermidis were grown overnight in TSBG (tryptic soy broth with 5% glucose) at 37° C. with shaking. These cultures were used to inoculate fresh TSBG to a calculated optical density of 0.01 at 600 nm (OD600). […] Untreated aliquots were used as a positive control and water served as a negative control. 100 μl of these suspensions were added to the wells of a 96-well polyvinylchloride microtiter plate. […] After incubation, media was discarded and the plates were washed with water to remove non-adherent cells. Adherent biofilms were stained with 110 μl of crystal violet (0.1% in water) and incubated at room temperature for thirty minutes. The crystal violet staining solution was discarded and plates were washed with water to remove excess stain. The resulting stained biofilms were solubilized with 200 μL of 95% ethanol for 10 minutes. 125 μl of the ethanol solutions were transferred to a clear polystyrene microtiter plate for evaluation. Absorbance at 540 nm was recorded using a BioTek Synergy H1 microplate reader. The absorbance of the negative control lanes was subtracted from the experimental values to account for background staining. Percent inhibition was calculated by comparison of the absorbance values of control versus treated wells under identical conditions.

Where [3] appears, read: Staphylococcus epidermidis, ATCC49461, 30 h.

Where two headings read alike, the source gives them in different places.

On to `Cc1ccnc2c1NC(=O)c1cccnc1N2C1CC1` [Compound I-1], for which, in the assay with S. aureus 43300 (MRSA) (+50 μM compound), the “Oxacillin MIC” value was found to be 16 µg/mL and the “Fold Reduction” value worked out at 1.

Take `C1=Cc2ccccc2Nc2ccccc21` [Compound I-4]: in the assay with S. aureus 43300 (MRSA) (+50 μM compound), the “Oxacillin MIC” value came out at 16 µg/mL and the “Fold Reduction” value stood at 1.

The term MIC denotes the smallest concentration in the dilution series that meets the test's criterion for growth inhibition. The term IC50 denotes the concentration at which inhibition is half-maximal. Regarding `Cc1ccc2ccc3ccc(C)nc3c2n1` [Compound V-9], the MIC in assay [1] was found to be 125 µM. Moreover, the IC50 in assay [2] (30 h) was under 5 µM. Also, in the assay with S. aureus 43300 (MRSA) (+31.25 μM compound), the “Oxacillin MIC” value was 32 µg/mL and the “Fold Reduction” value was determined as 1.

Take `C=CCN1c2ccccc2CCc2ccc(Cl)cc21` [II-5]: in the assay with S. aureus 43300 (MRSA) (+50 μM compound), the “Oxacillin MIC” value amounted to 8 µg/mL and the “Fold Reduction” value came out at 4.

Turning to `c1cnc2c(c1)ccc1cccnc12` [Compound V-4], the MIC in assay [1] stood at 125 µM. In addition, the IC50 in assay [2] (30 h) was found to be 51.8 µM. Besides, in the assay on S. aureus 43300 (MRSA) (+31.25 μM compound), the “Oxacillin MIC” value came to 8 µg/mL and the “Fold Reduction” value stood at 4.

Regarding `NC(=O)N1c2ccccc2C=Cc2ccccc21` [Compound I-2], in the assay with S. aureus 43300 (MRSA) (+50 μM compound), the “Oxacillin MIC” value was 16 µg/mL and the “Fold Reduction” value came to 1.

Turning to `c1cnc2ccc3ncccc3c2c1` [Compound V-2], in assay [1], the MIC was found to be 1000 µM. For the same compound, the IC50 in assay [2] (30 h) was 84.6 µM. In the assay on S. aureus 43300 (MRSA) (+100 μM compound), the “Oxacillin MIC” value came to 32 µg/mL and the “Fold Reduction” value is 1.

Consider `Cc1cc2cccnc2c2ncccc12` [Compound V-8], for which the MIC in assay [1] was determined as 125 µM. Further, in assay [2] (30 h), the IC50 was 78.9 µM. Further, in the assay on S. aureus 43300 (MRSA) (+31.25 μM compound), the “Oxacillin MIC” value turned out to be 2 µg/mL and the “Fold Reduction” value worked out at 16.

Take `CCN1c2ccccc2CCc2ccc(Cl)cc21` [II-2]: in the assay with S. aureus 43300 (MRSA) (+50 μM compound), the “Oxacillin MIC” value is 32 µg/mL and the “Fold Reduction” value is recorded as 1.

As to `Clc1ccnc2c1ccc1c(Cl)ccnc12` [Compound V-10], the MIC in assay [1] is reported as over 500 µM. Moreover, the IC50 in assay [2] (30 h) was found to be 27.3 µM. For the same compound, in the assay with S. aureus 43300 (MRSA) (+75 μM compound), the “Oxacillin MIC” value is 32 µg/mL and the “Fold Reduction” value stood at 1.

Take `Clc1ccc2c(c1)N(Cc1ccccc1)c1ccccc1CC2` [II-6]: in the assay with S. aureus 43300 (MRSA) (+50 μM compound), the “Oxacillin MIC” value was 32 µg/mL and the “Fold Reduction” value is 1.

Turning to `CCCCN1CCC(=C2c3ccc(Cl)cc3CCc3cccnc32)CC1` [III-1, 11-(1-butylpiperidin-4-ylidene)-8-chloro-6,11-dihydro-5H-benzo[5,6]cyclohepta[1,2-b]pyridine], in assay [2] (setting [3]), the IC50 was over 80 µM. For the same compound, in the assay on S. aureus 43300 (MRSA) (+50 μM compound), the “Fold Reduction” value is given as 1.

Take `COc1ccnc2c1ccc1c(OC)ccnc12` [Compound V-12]: the MIC in assay [1] was 31.25 µM. In addition, the IC50 in assay [2] (30 h) is over 100 µM. In the assay with S. aureus 43300 (MRSA) (+7.8 μM compound), the “Oxacillin MIC” value came out at 4 µg/mL and the “Fold Reduction” value is 8.

For `Clc1ccc2c(c1)CCc1cccnc1C2=C1CCN(Cc2ccccc2)CC1` [III-4], the IC50 in assay [2] (setting [3]) is over 50 µM. In addition, in the assay with S. aureus 43300 (MRSA) (+50 μM compound), the “Fold Reduction” value is 1.

Take `CCCCCCCCCN1CCC(=C2c3ccc(Cl)cc3CCc3cccnc32)CC1` [III-3, 8-chloro-11-(1-nonylpiperidin-4-ylidene)-6,11-dihydro-5H-benzo[5,6]cyclohepta[1,2-b]pyridine]: in assay [2] (setting [3]), the IC50 was over 80 µM. Further, the “Fold Reduction” value with S. aureus 43300 (MRSA) (+50 μM compound) was 1.

In the case of `Oc1ccnc2c1ccc1c(O)ccnc12` [Compound V-11], in assay [1], the MIC is given as 250 µM. Moreover, the IC50 in assay [2] (30 h) was over 100 µM. For the same compound, in the assay with S. aureus 43300 (MRSA) (+62.5 μM compound), the “Oxacillin MIC” value was determined as 32 µg/mL and the “Fold Reduction” value came out at 1.

`O=C1CCCNc2cc(Cl)ccc21` [Compound I-6]: in the assay on S. aureus 43300 (MRSA) (+50 μM compound), the “Oxacillin MIC” value amounted to 16 µg/mL and the “Fold Reduction” value worked out at 1.

As for `O=c1c2ccccc2ccc2ccccc12` [Compound I-3], in the assay on S. aureus 43300 (MRSA) (+50 μM compound), the “Oxacillin MIC” value was 16 µg/mL and the “Fold Reduction” value is reported as 1.

As for `CCCCCCCCNC1=Nc2ccccc2Oc2ccc(Cl)cc21` [II-9], in the assay with S. aureus 43300 (MRSA) (+50 μM compound), the “Oxacillin MIC” value stood at 32 µg/mL and the “Fold Reduction” value stood at 1.

As to `NC1=Nc2ccccc2Oc2ccc(Cl)cc21` [II-7], in the assay on S. aureus 43300 (MRSA) (+50 μM compound), the “Oxacillin MIC” value was 32 µg/mL and the “Fold Reduction” value is 1.

Regarding `c1ccc(-c2ccccn2)nc1` [Compound V-1], the MIC in assay [1] is reported as over 2000 µM. Moreover, in assay [2] (30 h), the IC50 was over 100 µM. For the same compound, in the assay with S. aureus 43300 (MRSA) (+100 μM compound), the “Oxacillin MIC” value stood at 32 µg/mL and the “Fold Reduction” value amounted to 1.

With `Brc1cc2ccccc2c2ccccc12` [Compound V-3], the minimum inhibitory concentration (MIC) in assay [1] is on record as over 250 µM. For the same compound, the IC50 in assay [2] (30 h) is over 100 µM. Besides, in the assay with S. aureus 43300 (MRSA) (+75 μM compound), the “Oxacillin MIC” value was determined as 8 µg/mL and the “Fold Reduction” value is listed as 4.

As for `Clc1ccc2ccc3cccnc3c2n1` [Compound V-5], the minimal inhibitory concentration (MIC) in assay [1] is 1000 µM. Also, in assay [2] (30 h), the IC50 is 38.5 µM. Further, in the assay with S. aureus 43300 (MRSA) (+100 μM compound), the “Oxacillin MIC” value stood at 32 µg/mL and the “Fold Reduction” value amounted to 1.

For the compound `CCCCCN1CCC(=C2c3ccc(Cl)cc3CCc3cccnc32)CC1` [III-2, 8-chloro-11-(1-pentylpiperidin-4-ylidene)-6,11-dihydro-5H-benzo[5,6]cyclohepta[1,2-b]pyridine], the IC50 in assay [2] (setting [3]) was 26.9 µM. Moreover, in the assay on S. aureus 43300 (MRSA) (+50 μM compound), the “Fold Reduction” value turned out to be 32.

As for `CC(C)c1ccc(CN2CCC(=C3c4ccc(Cl)cc4CCc4cccnc43)CC2)cc1` [III-5, 8-chloro-11-(1-(4-isopropylbenzyl)piperidin-4-ylidene)-6,11-dihydro-5H-benzo[5,6]cyclohepta[1,2-b]pyridine], in assay [2] (setting [3]), the IC50 is 62.2 µM. Also, the “Fold Reduction” value in the assay on S. aureus 43300 (MRSA) (+50 μM compound) worked out at 16.

For the compound `CCCCCCCCN1c2ccccc2CCc2ccc(Cl)cc21` [II-4], in the assay on S. aureus 43300 (MRSA) (+50 μM compound), the “Oxacillin MIC” value turned out to be 32 µg/mL and the “Fold Reduction” value is recorded as 1.

`O=[N+]([O-])c1cc2cccnc2c2ncccc12` [Compound V-7]: the MIC in assay [1] is 31.25 µM. Further, in assay [2] (30 h), the IC50 is over 100 µM. Also, in the assay on S. aureus 43300 (MRSA) (+7.8125 μM compound), the “Oxacillin MIC” value is 16 µg/mL and the “Fold Reduction” value was determined as 2.

For the compound `CCCCCN1c2ccccc2CCc2ccc(Cl)cc21` [II-3], in the assay on S. aureus 43300 (MRSA) (+50 μM compound), the “Oxacillin MIC” value came out at 16 µg/mL and the “Fold Reduction” value was 2.

On to `Clc1ccc2c(c1)C(NC1CCCCC1)=Nc1ccccc1O2` [II-10], for which, in the assay on S. aureus 43300 (MRSA) (+50 μM compound), the “Oxacillin MIC” value came out at 32 µg/mL and the “Fold Reduction” value stood at 1.

Turning to `Cc1cnc2c(ccc3c(C)c(C)cnc32)c1C` [Compound V-14], the MIC in assay [1] was 3.125 µM. Also, the IC50 in assay [2] (30 h) was over 100 µM. Further, in the assay on S. aureus 43300 (MRSA) (+0.78 μM compound), the “Oxacillin MIC” value worked out at 32 µg/mL and the “Fold Reduction” value worked out at 1.

Regarding `CCCCCNC1=Nc2ccccc2Oc2ccc(Cl)cc21` [II-8], in the assay with S. aureus 43300 (MRSA) (+50 μM compound), the “Oxacillin MIC” value is 32 µg/mL and the “Fold Reduction” value was 1.

In the case of `c1ccc(-c2ccnc3c2ccc2c(-c4ccccc4)ccnc23)cc1` [Compound V-13], the minimal inhibitory concentration (MIC) in assay [1] stood at 6.25 µM. For the same compound, the IC50 in assay [2] (30 h) was over 100 µM. In addition, the “Oxacillin MIC” value with S. aureus 43300 (MRSA) (+[…] compound) worked out at 16 µg/mL.
